This note sets out measurements from PubChem BioAssay (NCI).

Several values for one entry are separate records, joined by “and”; a condition that tells them apart may be missing. Identical values can stand only once.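 Results reflect a 48-hour exposure of cells in 96-well plates to compound at five concentrations. At the GI50, growth is halved. TGI denotes the concentration required for complete inhibition of growth.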

Among the test systems are SN12C renal; SNB-75 CNS; SK-OV-3 ovarian; HL-60(TB) leukemia; ACHN renal; SK-MEL-2 melanoma; IGROV1 ovarian; TK-10 renal.
Experiment in all cases: NCI-60 cell line screen, 48 h

For the molecule `CCOc1ccc(-c2nc3ccc(-c4nc5ccc(N6CCN(C)CC6)cc5[nH]4)cc3[nH]2)cc1`, the GI50 is 0.342 µM with SN12C renal; 0.131 µM in the assay on SNB-75 CNS; 0.379 µM and 0.478 µM with SK-OV-3 ovarian; 1.2 µM and 0.162 µM with HL-60(TB) leukemia; 0.631 µM and 1.18 µM with ACHN renal; 1.07 µM in the assay with SK-MEL-2 melanoma. Further, the GI50 in the assay on IGROV1 ovarian is 0.514 µM; in the assay with TK-10 renal, 1.05 µM. Moreover, the TGI in the assay on SN12C renal was 1.61 µM; in the assay on SNB-75 CNS, 0.354 µM; with SK-OV-3 ovarian, 1.84 µM and 1.86 µM; with HL-60(TB) leukemia, 1.23 µM; in the assay with ACHN renal, 1.89 µM and 2.7 µM; in the assay on SK-MEL-2 melanoma it was 2.49 µM. Moreover, the TGI is 2.44 µM with IGROV1 ovarian and 2.24 µM with TK-10 renal.
Regarding `COc1cccc(S(=O)(=O)NC2=NCCN2C(=S)SN2CCn3c2nsc3=S)c1`, the GI50 in the assay on SN12C renal was 36.1 µM; in the assay with SNB-75 CNS it was 30 µM; in the assay with SK-OV-3 ovarian it was 20.4 µM; with HL-60(TB) leukemia, 26.1 µM; in the assay on ACHN renal, 15.6 µM; with SK-MEL-2 melanoma, 68.2 µM. In addition, the GI50 in the assay with IGROV1 ovarian is 27.2 µM; with TK-10 renal, 34.4 µM. In addition, the TGI is over 100 µM with SN12C renal; 89.6 µM in the assay with SNB-75 CNS; 99.1 µM with SK-OV-3 ovarian; 79.4 µM in the assay on HL-60(TB) leukemia; 29.8 µM in the assay with ACHN renal; over 100 µM in the assay on SK-MEL-2 melanoma. Moreover, the TGI in the assay on IGROV1 ovarian turned out to be 78.5 µM; in the assay on TK-10 renal, 81.5 µM.
Take `OCc1ccc(-c2nc(-c3ccc4c(c3)OCO4)c(-c3ccccn3)[nH]2)cc1`: the GI50 in the assay with SN12C renal is over 25 µM; in the assay on SNB-75 CNS, over 7.04 µM; with SK-OV-3 ovarian, over 25 µM; in the assay on HL-60(TB) leukemia, over 25 µM; in the assay on ACHN renal it was over 25 µM; with SK-MEL-2 melanoma it was over 25 µM. The GI50 in the assay on IGROV1 ovarian and in the assay on TK-10 renal was over 25 µM in each case. Moreover, the TGI in the assay on SN12C renal, in the assay on SNB-75 CNS, in the assay with SK-OV-3 ovarian, in the assay with HL-60(TB) leukemia, in the assay with ACHN renal and in the assay on SK-MEL-2 melanoma was over 25 µM in each case. Besides, the TGI with IGROV1 ovarian and with TK-10 renal was over 25 µM throughout.
On to `CCOC(=O)Cc1csc(NC(=O)C(OC(=O)c2ccc(Cl)cc2)c2ccccc2)n1` (centres undefined), for which the GI50 with SN12C renal is 37.8 µM; in the assay with SNB-75 CNS, 26.1 µM; in the assay on SK-OV-3 ovarian it was over 100 µM; in the assay on HL-60(TB) leukemia, 9.28 µM; in the assay with ACHN renal, 62.1 µM; in the assay on SK-MEL-2 melanoma, 23.8 µM. In addition, the GI50 in the assay on IGROV1 ovarian is 47 µM; in the assay with TK-10 renal, over 100 µM. In addition, the TGI in the assay on SN12C renal was over 100 µM; with SNB-75 CNS, 95.1 µM; in the assay on SK-OV-3 ovarian, over 100 µM; in the assay with HL-60(TB) leukemia, 68.9 µM; in the assay with ACHN renal, over 100 µM; in the assay on SK-MEL-2 melanoma, 50.7 µM. For the same molecule, the TGI in the assay on IGROV1 ovarian and in the assay with TK-10 renal was over 100 µM throughout.
As to `O=S(O)O.O=S(O)O.[Co].[NH2-].[NH2-].[NH2-].[NH2-]`, the GI50 in the assay with SN12C renal, with SNB-75 CNS, in the assay with SK-OV-3 ovarian, in the assay with HL-60(TB) leukemia, in the assay with ACHN renal and in the assay with SK-MEL-2 melanoma was over 100 µM in each case. Besides, the GI50 with IGROV1 ovarian and with TK-10 renal was over 100 µM each time. The TGI in the assay with SN12C renal, in the assay on SNB-75 CNS, with SK-OV-3 ovarian, in the assay on HL-60(TB) leukemia, in the assay on ACHN renal and with SK-MEL-2 melanoma was over 100 µM each time. Further, the TGI in the assay with IGROV1 ovarian and in the assay with TK-10 renal was over 100 µM in each case.
As to `N#Cc1c(N)nc2c(c1-c1ccc(Cl)cc1)COc1ccc(F)cc1-2`, the GI50 was 19.1 µM in the assay with SN12C renal; over 100 µM in the assay on SNB-75 CNS; over 100 µM with SK-OV-3 ovarian; 26.5 µM with HL-60(TB) leukemia; 15.9 µM with ACHN renal; 19 µM with SK-MEL-2 melanoma. The GI50 in the assay with IGROV1 ovarian is 14.8 µM; in the assay with TK-10 renal it was 34.7 µM. Besides, the TGI is 47.7 µM with SN12C renal; over 100 µM in the assay with SNB-75 CNS; over 100 µM in the assay on SK-OV-3 ovarian; 53.4 µM in the assay on HL-60(TB) leukemia; 52.1 µM with ACHN renal; 64.2 µM with SK-MEL-2 melanoma. The TGI with IGROV1 ovarian and with TK-10 renal was over 100 µM throughout.
On to `Clc1cc(Br)ccc1-c1ccc(CNCC2CCNCC2)o1`, for which the GI50 with SN12C renal was 2.23 µM; in the assay on SNB-75 CNS, 1.26 µM; in the assay on SK-OV-3 ovarian, 1.99 µM; in the assay on HL-60(TB) leukemia it was 1.89 µM; in the assay with ACHN renal, 1.93 µM; in the assay on SK-MEL-2 melanoma it was 1.75 µM. Moreover, the GI50 in the assay on IGROV1 ovarian was 1.9 µM; in the assay with TK-10 renal, 1.75 µM. Further, the TGI with SN12C renal came to 7.69 µM; in the assay on SNB-75 CNS it was 2.88 µM; in the assay on SK-OV-3 ovarian it was 3.86 µM; in the assay with HL-60(TB) leukemia, 3.99 µM; with ACHN renal it was 3.66 µM; with SK-MEL-2 melanoma, 3.53 µM. In addition, the TGI in the assay on IGROV1 ovarian came out at 3.86 µM; with TK-10 renal, 3.37 µM.
Regarding `CCOC(=O)c1ccc(N2NC(=O)/C(=C/c3ccc([N+](=O)[O-])o3)C2=O)cc1`, the GI50 is 27.5 µM in the assay with SN12C renal; 27.6 µM in the assay on SNB-75 CNS; over 39.4 µM with SK-OV-3 ovarian; 11.7 µM in the assay on HL-60(TB) leukemia; 8.27 µM in the assay on ACHN renal; over 40.6 µM in the assay with SK-MEL-2 melanoma. Moreover, the GI50 is 20 µM with IGROV1 ovarian and 9.04 µM in the assay on TK-10 renal. The TGI in the assay with SN12C renal was over 55.8 µM; with SNB-75 CNS it was over 51.5 µM; in the assay on SK-OV-3 ovarian it was over 54.1 µM; in the assay with HL-60(TB) leukemia, 47.4 µM; in the assay with ACHN renal it was 20.8 µM; in the assay with SK-MEL-2 melanoma it was over 55.4 µM. Further, the TGI with IGROV1 ovarian came out at 41.4 µM; in the assay on TK-10 renal it was 23.2 µM.
Consider `CC(C)(C)c1cc(C[P+](c2ccccc2)(c2ccccc2)c2ccccc2)cc(C(C)(C)C)c1O`, for which the GI50 was 0.404 µM in the assay with SN12C renal; 0.369 µM with SNB-75 CNS; 1.44 µM in the assay with SK-OV-3 ovarian; 0.22 µM in the assay on HL-60(TB) leukemia; 2.63 µM in the assay with ACHN renal; 0.257 µM with SK-MEL-2 melanoma. Moreover, the GI50 with IGROV1 ovarian is 0.437 µM; with TK-10 renal it was 0.486 µM. Further, the TGI with SN12C renal turned out to be 2.31 µM; with SNB-75 CNS, 6.18 µM; with SK-OV-3 ovarian it was 6.7 µM; with HL-60(TB) leukemia, 0.682 µM; with ACHN renal it was 10.8 µM; in the assay with SK-MEL-2 melanoma, 0.585 µM. For the same molecule, the TGI was 7.46 µM in the assay on IGROV1 ovarian and 3.25 µM in the assay on TK-10 renal.
